Measured values published in patent US20260207600A1, “METHODS OF TREATMENT WITH MYOSIN MODULATOR” (MYOKARDIA, INC., priority 2019, published 2026).
Values after ≈ are worked out from the molar mass of the structure shown.

What was measured:
[1] = API thermodynamic solubility; format: physicochemical; details: thermodynamic from solid
anaesthetized rats = assay: Counteraction of mavacamten effects by dobutamine in anaesthetized rats; format: in vivo, rat
Excerpt: Additional supportive measures, e.g., intravenous volume supplementation and/or the use of arterial vasoconstrictor agents (a adrenergic agonists) may complement the use of a β adrenergic agonist.

[2] = system: subjects with obstructive HCM; details: human, in vivo; cited from earlier work
[3] = system: participants with symptomatic oHCM; assay: EXPLORER-HCM Phase 3 double blind, randomized, placebo controlled study; format: in vivo, human
Excerpt: A subset of participants consented to participate in a CMR substudy at selected sites. Randomization was stratified according to NYHA functional classification (II or III), current treatment with β-blocker (yes or no), planned type of ergometer used during the study (treadmill or exercise bicycle), and consent for the CMR substudy (yes or no).
The study included 3 periods carried out according to the following design:
1) Screening period (Day −35 to Day −1): Participants will undergo a variety of general, cardiopulmonary, laboratory, symptom, and PRO assessments over 1 to 2 days in order to assess eligibility. Key Screening tests include electrocardiogram (ECG); transthoracic echocardiography (TTE) conducted at rest, with Valsalva maneuver, and post-exercise; as well as cardiopulmonary exercise testing (CPET). The following screening assessments may be repeated, as long as within the 35-days screening window: blood tests, ECG, and/or TTE. Repeat assessments are allowed if central core labs require a repeat submission due to quality and in order to better assess inclusion/exclusion values. Participants who screen fail may be considered for rescreening based on the investigator's discretion, taking into consideration the reason(s) for screen fail. One attempt at rescreening will be allowed, and all procedures must be repeated.
2) Double-blind treatment period (Day 1 [randomization] to Week 30/end of treatment [EOT]): The double-blind treatment period will include a two-step dose titration scheme designed to achieve safe and effective dosing for each participant based on their own response parameters. […] Subsequently, assessments including ECG, PK (trough plasma concentrations), and TTE will be performed at each of 7 study visits, beginning at Week 4, and read by core laboratories. At Week 8 and Week 14, the dose may be increased, decreased, or remain unchanged based upon results of Week 6 and Week 12 assessments, respectively, and based primarily on measurements of provoked left ventricular outflow tract (LVOT) gradient and bounded by a target plasma concentration (PK) range and clinical tolerability (LVEF). At Week 8, the dose may be increased to a maximum daily dose of 10 mg (ie, increase from 5 mg QD to 10 mg QD), and at Week 14 to a maximum daily dose of 15 mg (ie, increase from 10 mg QD to 15 mg QD). Dose increases are designed to be step wise and are not allowed to skip doses (eg, from 5 mg to 15 mg).
At Week 30/EOT, participants will complete CPET and post-exercise TTE. For any participants permanently discontinuing treatment prior to Week 30, an early termination (ET) visit should be conducted as soon as possible, including CPET and post-exercise TTE. Participants with ET will also be encouraged to complete all remaining study visits and assessments, including the Week 30 visit.
3) Posttreatment follow-up period (Week 30/EOT to Week 38/end of study [EOS]): When double-blind treatment ends at Week 30, participants will be contacted by phone at Week 34 and return to the site at Week 38 for an EOS visit. At the EOS visit, specified assessments will be repeated. This posttreatment follow-up period applies only to participants who are receiving study drug after Week 22.
To maintain safety throughout the double-blind treatment period, a clinic visit will occur every 2 to 4 weeks, beginning at Week 4 for an initial evaluation of clinical tolerability and safety. Clinic visits will include but are not limited to clinical evaluation (symptoms, PRO evaluations, adverse event [AE]/serious adverse event [SAE] assessment), ECGs, PK sample, TTEs, and laboratory assessments. Results of TTE performed by study site sonographers at each scheduled visit following randomization should be kept blinded to the investigator and other study site personnel. […]

[4] = Mavacamten arm (n = 123), baseline to Week 30
[5] = Mavacamten arm, defined as NYHA Class I and all LVOT gradients <30 mmHg
[6] = change from baseline to Week 30, p <0.0001

CC(C)n1c(=O)cc(N[C@@H](C)c2ccccc2)[nH]c1=O [mavacamten, (S)-3-Isopropyl-6-((1-phenylethyl)amino)pyrimidine-2, 4(1H,3H)-dione]
solubility thermodynamic ([1]; DCM, organic solvent or mixture): 1100 µg/mL (≈ 4.02 mM)
solubility thermodynamic ([1]; DMF, organic solvent or mixture): ~130000 µg/mL (≈ 476 mM)
solubility thermodynamic ([1]; DMSO, organic solvent or mixture): > 150000 µg/mL
solubility thermodynamic ([1]; EtOAc, organic solvent or mixture): 1000 µg/mL (≈ 3.66 mM)
solubility thermodynamic ([1]; EtOH, organic solvent or mixture): 7400 µg/mL (≈ 27.1 mM)
solubility thermodynamic ([1]; NMP, organic solvent or mixture): > 150000 µg/mL
solubility thermodynamic ([1]; acetone, organic solvent or mixture): 3300 µg/mL (≈ 12.1 mM)
solubility thermodynamic ([1]; acetonitrile, organic solvent or mixture): 900 µg/mL (≈ 3.29 mM)
solubility thermodynamic ([1]; diethyl ether, organic solvent or mixture): 50 µg/mL (≈ 0.183 mM)
solubility thermodynamic ([1]; hexanes, organic solvent or mixture): < 10 µg/mL
solubility thermodynamic ([1]; n-heptanes, organic solvent or mixture): < 10 µg/mL
solubility thermodynamic ([1]; n-hexane, organic solvent or mixture): < 10 µg/mL
solubility thermodynamic ([1]; p-dioxane, organic solvent or mixture): 1200 µg/mL (≈ 4.39 mM)
solubility thermodynamic ([1]; water): 10 µg/mL (≈ 0.0366 mM)
Reversal of pharmacologic effects by β adrenergic agonist (anaesthetized rats): can be counteracted by β adrenergic agonists
Obstruction of the left ventricular outflow tract [2]: reduced or eliminated the obstruction of the left ventricular outflow tract
subjects with severe TEAEs ([3]; 7 subjects, placebo 10.2%): 5.7%
Response Type 1 (pVO2 ≥1.5 ml/kg/min and NYHA improved ≥1), n (%) ([3]; Mavacamten (n = 123)): 41 (33.3) n (%)
Response Type 2 (pVO2 ≥3.0 ml/kg/min and no worsening NYHA), n (%) ([3]; Mavacamten (n = 123)): 29 (23.6) n (%)
pVO2 ≥3.0 and NYHA ≥1, n (%) ([3]; Mavacamten (n = 123)): 25 (20.3) n (%)
Met Composite Functional Response, either type, n (%) ([3]; Mavacamten (n = 123), Week 30): 45 (36.6) n (%)
Absence of MR (mitral regurgitation), (%) ([3]; Mavacamten arm): (9.0) %
Absence of MR (mitral regurgitation), n/assessible ([3]; Mavacamten arm): 10/111
Absence of SAM (systolic anterior motion of mitral valve), (%) ([3]; Mavacamten arm): (80.9) %
Absence of SAM (systolic anterior motion of mitral valve), n/assessible ([3]; Mavacamten arm): 76/94
participants with a temporary discontinuation associated with reduced ejection fraction ([3]; Mavacamten arm): 3
HCMSQ-SoB score, change from baseline, mean (SD) [3, 4]: −2.82 (2.7)
KCCQ-CSS, change from baseline, mean (SD) [3, 4]: 13.6 (14.4)
KCCQ-OSS, change from baseline, mean (SD) [3, 4]: 14.87 (15.8)
KCCQ-total symptom score, change from baseline, mean (SD) [3, 4]: 12.44 (15.0)
NYHA improved ≥1 Class, n (%) [3, 4]: 80 (65) n (%)
Post-exercise LVOT peak gradient, change from baseline, mean (SD) [3, 4]: −47.2 (40.3) mmHg
pVO2, change from baseline, mean (SD) [3, 4]: 1.4 (3.1) mL/kg/min
Post-exercise LVOT peak gradient < 30 mmHg, (%) ([3]; Mavacamten arm, Week 30): (56.6) %
Post-exercise LVOT peak gradient < 30 mmHg, n/assessible ([3]; Mavacamten arm, Week 30): 64/113
Post-exercise LVOT peak gradient < 50 mmHg, (%) ([3]; Mavacamten arm, Week 30): (74.3) %
Post-exercise LVOT peak gradient < 50 mmHg, n/assessible ([3]; Mavacamten arm, Week 30): 75/101
Complete Response, (%) [3, 5]: (27.4) %
Complete Response, n/assessible [3, 5]: 32/117
Met Composite Functional Response, either type ([3]; Mavacamten vs Placebo): 19.4
Response Type 1 ([3]; Mavacamten vs Placebo): 19.3
Response Type 2 ([3]; Mavacamten vs Placebo): 12.6
pVO2 ≥3.0 and NYHA ≥1 ([3]; Mavacamten vs Placebo): 12.5
Complete Response, Mava vs Placebo Difference (95% CI) ([3]; NYHA Class I and all LVOT gradients <30 mmHg, p <0.0001): 26.6 (18.3, 34.8)
NT-proBNP Mava vs Placebo Model Est RR ([3]; Week 30, 95% CI (0.169, 0.241), p <0.0001): 0.202
hs-cTnI Mava vs Placebo Model Est RR ([3]; Week 30, 95% CI (0.500, 0.693), p <0.0001): 0.589
Post-exercise LVOT peak gradient < 30 mmHg, Mava vs Placebo Difference (95% CI) ([3]; Week 30, p <0.0001): 49.6 (39.3, 59.8)
Post-exercise LVOT peak gradient < 50 mmHg, Mava vs Placebo Difference (95% CI) ([3]; Week 30, p <0.0001): 53.5 (42.0. 65.0)
NYHA improved ≥1 Class, Mavacamten vs Placebo Difference (95% CI) ([3]; baseline to Week 30, p <0.0001): 33.8 (22.1, 45.4) <0.0001
KCCQ-total symptom score, Mavacamten vs Placebo Difference (95% CI) ([3]; change from baseline to Week 30, p 0.0002): 7.60 (3.68, 11.52) 0.0002
pVO2, Mavacamten vs Placebo Difference (95% CI) ([3]; change from baseline to Week 30, p 0.0006): 1.35 (0.580, 2.116) 0.0006 mL/kg/min
HCMSQ-SoB score, Mavacamten vs Placebo Difference (95% CI) [3, 6]: −1.8 (−2.402, −1.196) <0.0001
KCCQ-CSS, Mavacamten vs Placebo Difference (95% CI) [3, 6]: 9.1 (5.46, 12.66) <0.0001
KCCQ-OSS, Mavacamten vs Placebo Difference (95% CI) [3, 6]: 9.12 (5.46, 12.80) <0.0001
Post-exercise LVOT peak gradient, Mavacamten vs Placebo Difference (95% CI) [3, 6]: −35.5 (−43.1, −27.9) <0.0001 mmHg
Tolerability ([3]; doses ranging from 2.5 to 15 mg): well tolerated
patients meeting the primary efficacy endpoint (composite functional response) ([3]; intent-to-treat, 45 of the 123 patients): 36.6%
permanent treatment discontinuations due to adverse events ([3]; on mavacamten (atrial fibrillation, syncope)): 2
Absence of MR, Mava vs Placebo Difference (95% CI) ([3]; p 0.0006): 9.0 (3.7, 14.3)
Absence of SAM, Mava vs Placebo Difference (95% CI) ([3]; p <0.0001): 46.9 (34.5, 59.2)
temporary discontinuations ([3]; patients on mavacamten (all at a 5 mg dose)): 8
patients achieving a complete response (NYHA 1 and all LVOT gradients below 30 mmHg) ([3]; placebo 1%): 27%
patients with cardiac SAEs ([3]; placebo 4): 4
patients achieving a post-exercise LVOT peak gradient below 30 mmHg ([3]; placebo 7%): 57%
number of SAEs ([3]; placebo 20): 12
patients achieving NYHA class I status ([3]; placebo 21%): 65%
subjects experiencing SAEs ([3]; through week 30, 10 subjects): 8.1%
